Structures can show the parent of a compound that is named as a salt.
Tests used:
human V1a receptor = molecular target: T1, human V1a receptor (Homo sapiens, UniProt P37288); experiment: Cellular in vitro assay for determining vasopressin receptor activity (V1a, aequorin luminescence); assay type: cell-based; conditions: for IC50: CHO cell line transfected with the human V1a receptor, [Arg8]-vasopressin at EC50 concentration, read-out: IC50 hV1a; for ratio IC50 hV2/hV1a: selectivity ratio of IC50 hV2 to IC50 hV1a
T1 construct: expressed in transfected cells; host or cells: CHO K1 (ATCC), also stably transfected with a modified aequorin
T1 sequence (P37288 whole entry): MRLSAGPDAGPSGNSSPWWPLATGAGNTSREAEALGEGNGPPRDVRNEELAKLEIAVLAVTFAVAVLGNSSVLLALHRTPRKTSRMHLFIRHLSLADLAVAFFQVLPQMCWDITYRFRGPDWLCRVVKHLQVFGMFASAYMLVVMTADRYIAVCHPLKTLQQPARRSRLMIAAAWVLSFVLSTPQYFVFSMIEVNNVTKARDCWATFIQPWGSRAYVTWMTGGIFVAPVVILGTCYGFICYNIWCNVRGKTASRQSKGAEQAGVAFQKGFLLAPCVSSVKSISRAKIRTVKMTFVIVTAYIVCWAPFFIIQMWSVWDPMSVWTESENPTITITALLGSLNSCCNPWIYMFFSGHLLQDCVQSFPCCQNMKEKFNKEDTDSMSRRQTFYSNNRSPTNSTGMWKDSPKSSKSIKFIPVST
Experimental: (§1) B-1. Cellular In Vitro Assay for Determining Vasopressin Receptor Activity
(§2) The identification of agonists and antagonists of the V1a and V2 vasopressin receptors from humans, rats and dogs as well as the quantification of the activity of the compounds of the invention is carried out using recombinant cell lines. These cell lines originally derive from a hamster's ovary epithelial cell (Chinese Hamster Ovary, CHO K1, ATCC: American Type Culture Collection, Manassas, Va. 20108, USA). The test cell lines constitutively express the human, rat or dog V1a or V2 receptors. In case of the Gαq-coupled V1a receptors, cells are also stably transfected with a modified form of the calcium-sensitive photoproteins aequorin (human and rat V1a) or obelin (dog V1a), which, after reconstitution with the cofactor coelenterazine, emit light when there are increases in free calcium concentrations [Rizzuto R, Simpson A W, Brini M, Pozzan T, Nature 358, 325-327 (1992); Illarionov B A, Bondar V S, Illarionova V A, Vysotski E S, Gene 153 (2), 273-274 (1995)]. The resulting vasopressin receptor cells react to stimulation of the recombinantly expressed V1a receptors by intracellular release of calcium ions, which can be quantified by the resulting photoprotein luminescence. The Gs-coupled V2 receptors are stably transfected into cell lines expressing the gene for firefly luciferase under control of a CRE-responsible promoter. Activation of V2 receptors induces the activation of the CRE-responsive promoter via cAMP increase, thereby inducing the expression of firefly luciferase. The light emitted by photoproteins of V1a cell lines as well as the light emitted by firefly luciferase of V2 cell lines corresponds to the activation or inhibition of the respective vasopressin receptor. The bioluminescence of the cell lines is detected using a suitable luminometer [Milligan G, Marshall F, Rees S, Trends in Pharmacological Sciences 17, 235-237 (1996)].
Vasopressin V1a receptor cell lines:
On the day before the assay, the cells are plated out in culture medium (DMEM/F12, 2% FCS, 2 mM glutamine, 10 mM HEPES, 5 μg/ml coelenterazine) in 384-well microtiter plates and kept in a cell incubator (96% humidity, 5% v/v CO2, 37° C.). On the day of the assay, test compounds in various concentrations are placed for 10 minutes in the wells of the microtiter plate before the agonist [Arg^8]-vasopressin at EC50 concentration is added. The resulting light signal is measured immediately in a luminometer.
(§3) Table 1A below lists individual IC50 values for the compounds of the invention (including racemic mixtures as well as separated enantiomers) that were obtained from cell lines transfected with the human V1a or V2 receptor: […]

human V2 receptor = molecular target: T2, human V2 receptor (Homo sapiens, UniProt P30518); experiment: Cellular in vitro assay for determining vasopressin receptor activity (V2, CRE-luciferase); assay type: cell-based; conditions: CHO cell line transfected with the human V2 receptor; [Arg8]-vasopressin at EC50 concentration; read-out: IC50 hV2
T2 construct: expressed in transfected cells; host or cells: CHO K1 (ATCC) expressing firefly luciferase under a CRE-responsive promoter
T2 sequence (P30518 whole entry): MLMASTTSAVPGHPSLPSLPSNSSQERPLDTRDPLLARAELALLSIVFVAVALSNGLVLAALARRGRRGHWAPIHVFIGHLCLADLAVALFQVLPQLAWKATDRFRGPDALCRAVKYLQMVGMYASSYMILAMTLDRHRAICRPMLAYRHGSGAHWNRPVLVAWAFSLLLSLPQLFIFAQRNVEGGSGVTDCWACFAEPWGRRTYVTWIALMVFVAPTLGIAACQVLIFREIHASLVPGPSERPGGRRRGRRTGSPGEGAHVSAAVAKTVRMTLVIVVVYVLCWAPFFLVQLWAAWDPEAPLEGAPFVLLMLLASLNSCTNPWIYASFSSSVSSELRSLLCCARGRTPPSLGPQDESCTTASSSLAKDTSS
Experimental: as §1, §2
Vasopressin V2 receptor cell lines:
On the day before the assay, the cells are plated out in culture medium (DMEM/F12, 2% FCS, 2 mM glutamine, 10 mM HEPES) in 384-well microtiter plates and kept in a cell incubator (96% humidity, 5% v/v CO2, 37° C.). On the day of the assay, test compounds in various concentrations and the agonist [Arg^8]-vasopressin at EC50 concentration are added together to the wells, and plates are incubated for 3 hours in a cell incubator. Upon addition of the cell lysis reagent Triton™ and the substrate luciferin, luminescence of firefly luciferase is measured in a luminometer.
as §3

IC50 (human V1a receptor) [nM] | ratio IC50 hV2/hV1a (human V1a receptor) | IC50 (human V2 receptor) [nM] | SMILES
18.3 | 0.3 | 5.29 | CC(N)c1nc(Cn2nc(-c3ccc(Cl)cc3)n(C[C@H](O)C(F)(F)F)c2=O)nn1-c1cccc(F)c1 (mixture of isomers) [Example 53, 2-({5-[1-Aminoethyl]-1-(3-fluorophenyl)-1H-1,2,4-triazol-3-yl}methyl)-5-(4-chlorophenyl)-4-[(2S)-3,3,3-trifluoro-2-hydroxypropyl]-2,4-dihydro-3H-1,2,4-triazol-3-one trifluoroacetate]
1.19 | 2.3 | 2.74 | Cc1ccccc1-n1nc(Cn2nc(-c3ccc(Cl)cc3)n(C[C@H](O)C(F)(F)F)c2=O)nc1C(C)N (mixture of isomers) [Example 59, 2-({5-[1-Aminoethyl]-1-(2-methylphenyl)-1H-1,2,4-triazol-3-yl}methyl)-5-(4-chlorophenyl)-4-[(2S)-3,3,3-trifluoro-2-hydroxypropyl]-2,4-dihydro-3H-1,2,4-triazol-3-one trifluoroacetate]
0.74 | 4.3 | 3.17 | CC(N)c1nc(Cn2nc(-c3ccc(Cl)cc3)n(C[C@H](O)C(F)(F)F)c2=O)nn1-c1ccccc1Cl (mixture of isomers) [Example 60, 2-({5-[1-Aminoethyl]-1-(2-chlorophenyl)-1H-1,2,4-triazol-3-yl}methyl)-5-(4-chlorophenyl)-4-[(2S)-3,3,3-trifluoro-2-hydroxypropyl]-2,4-dihydro-3H-1,2,4-triazol-3-one trifluoroacetate]
1.8 | 9.8 | 17.7 | CC(=O)NC(C)c1nc(Cn2nc(-c3ccc(Cl)cc3)n(C[C@H](O)C(F)(F)F)c2=O)nn1-c1ccccc1Cl (mixture of isomers) [Example 64, N-{1-[1-(2-Chlorophenyl)-3-({3-(4-chlorophenyl)-5-oxo-4-[(2S)-3,3,3-trifluoro-2-hydroxypropyl]-4,5-dihydro-1H-1,2,4-triazol-1-yl}methyl)-1H-1,2,4-triazol-5-yl]ethyl}acetamide]

Further lines, the compound ahead of its results:

SMILES | IC50 (human V1a receptor) [nM] | ratio IC50 hV2/hV1a (human V1a receptor) | IC50 (human V2 receptor) [nM]
CC(NS(C)(=O)=O)c1nc(Cn2nc(-c3ccc(Cl)cc3)n(C[C@H](O)C(F)(F)F)c2=O)nn1-c1ccccc1Cl (mixture of isomers) [Example 67, N-{1-[1-(2-Chlorophenyl)-3-({3-(4-chlorophenyl)-5-oxo-4-[(2S)-3,3,3-trifluoro-2-hydroxypropyl]-4,5-dihydro-1H-1,2,4-triazol-1-yl}methyl)-1H-1,2,4-triazol-5-yl]ethyl}methanesulfonamide] | 0.83 | 2.9 | 2.43
CN1C(=O)CCC1c1nc(Cn2nc(-c3ccc(Cl)cc3)n(C[C@H](O)C(F)(F)F)c2=O)nn1-c1ccccc1Cl (mixture of isomers) [Example 70, 5-(4-Chlorophenyl)-2-{[1-(2-chlorophenyl)-5-(1-methyl-5-oxopyrrolidin-2-yl)-1H-1,2,4-triazol-3-yl]methyl}-4-[(2S)-3,3,3-trifluoro-2-hydroxypropyl]-2,4-dihydro-3H-1,2,4-triazol-3-one] | 0.81 | 8.7 | 7.03
CC(NC(=O)C(F)(F)F)c1nc(Cn2nc(-c3ccc(Cl)cc3)n(C[C@H](O)C(F)(F)F)c2=O)nn1-c1ccccc1Cl (mixture of isomers) [Example 73, N-{1-[1-(2-Chlorophenyl)-3-({3-(4-chlorophenyl)-5-oxo-4-[(2S)-3,3,3-trifluoro-2-hydroxypropyl]-4,5-dihydro-1H-1,2,4-triazol-1-yl}methyl)-1H-1,2,4-triazol-5-yl]ethyl}-2,2,2-trifluoroacetamide] | 1.56 | 5.5 | 8.6
